Results: ChEMBL document CHEMBL1201862, “PubChem BioAssay data set” (2004)
Active and inactive are the calls of the source.

Legend:
[1] = target: Heat shock protein HSP 90-alpha (Homo sapiens, UniProt P07900); type: functional, organism-based
[2] = target: T1, Replicative DNA helicase DnaB (Mycobacterium tuberculosis, UniProt P9WMR3); assay: DnaB intein splicing inhibitors, dose response, biochemical, cell-free fluorescence (AID 449749); type: functional
T1 sequence (P9WMR3 whole entry): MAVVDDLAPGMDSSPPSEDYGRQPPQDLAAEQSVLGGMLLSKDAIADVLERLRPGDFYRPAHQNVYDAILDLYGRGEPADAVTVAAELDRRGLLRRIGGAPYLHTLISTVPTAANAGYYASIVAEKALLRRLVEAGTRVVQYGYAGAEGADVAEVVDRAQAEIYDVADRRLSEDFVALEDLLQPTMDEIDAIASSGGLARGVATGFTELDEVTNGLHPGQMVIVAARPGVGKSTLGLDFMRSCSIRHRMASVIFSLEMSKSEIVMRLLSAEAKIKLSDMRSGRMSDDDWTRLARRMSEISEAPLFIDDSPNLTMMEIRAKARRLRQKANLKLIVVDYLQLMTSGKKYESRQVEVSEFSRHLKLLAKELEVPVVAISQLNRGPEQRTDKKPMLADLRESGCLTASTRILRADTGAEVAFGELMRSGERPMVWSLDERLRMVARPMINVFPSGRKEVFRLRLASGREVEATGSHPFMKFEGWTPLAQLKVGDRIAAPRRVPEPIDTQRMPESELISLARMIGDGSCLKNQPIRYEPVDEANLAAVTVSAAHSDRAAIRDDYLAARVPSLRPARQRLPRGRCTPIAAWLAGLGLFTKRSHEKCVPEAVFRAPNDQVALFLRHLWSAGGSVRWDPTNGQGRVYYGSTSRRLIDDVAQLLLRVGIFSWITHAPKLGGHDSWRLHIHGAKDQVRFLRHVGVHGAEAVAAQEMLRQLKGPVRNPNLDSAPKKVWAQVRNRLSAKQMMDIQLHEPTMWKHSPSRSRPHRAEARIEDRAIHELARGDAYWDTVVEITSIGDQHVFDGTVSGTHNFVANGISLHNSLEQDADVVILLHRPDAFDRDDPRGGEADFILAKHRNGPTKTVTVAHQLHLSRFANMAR

Protein RecA = target: T2, Protein RecA (Mycobacterium tuberculosis, UniProt P9WHJ3); assay: Fluorescence Cell-Free Homogeneous Dose Retest to Identify Inhibitors of RecA-Intein Splicing Activity. [Related pubchem assays (depositor defined):AID2097, AID2223, AID489010, AID492950]; type: functional
T2 sequence (P9WHJ3 whole entry): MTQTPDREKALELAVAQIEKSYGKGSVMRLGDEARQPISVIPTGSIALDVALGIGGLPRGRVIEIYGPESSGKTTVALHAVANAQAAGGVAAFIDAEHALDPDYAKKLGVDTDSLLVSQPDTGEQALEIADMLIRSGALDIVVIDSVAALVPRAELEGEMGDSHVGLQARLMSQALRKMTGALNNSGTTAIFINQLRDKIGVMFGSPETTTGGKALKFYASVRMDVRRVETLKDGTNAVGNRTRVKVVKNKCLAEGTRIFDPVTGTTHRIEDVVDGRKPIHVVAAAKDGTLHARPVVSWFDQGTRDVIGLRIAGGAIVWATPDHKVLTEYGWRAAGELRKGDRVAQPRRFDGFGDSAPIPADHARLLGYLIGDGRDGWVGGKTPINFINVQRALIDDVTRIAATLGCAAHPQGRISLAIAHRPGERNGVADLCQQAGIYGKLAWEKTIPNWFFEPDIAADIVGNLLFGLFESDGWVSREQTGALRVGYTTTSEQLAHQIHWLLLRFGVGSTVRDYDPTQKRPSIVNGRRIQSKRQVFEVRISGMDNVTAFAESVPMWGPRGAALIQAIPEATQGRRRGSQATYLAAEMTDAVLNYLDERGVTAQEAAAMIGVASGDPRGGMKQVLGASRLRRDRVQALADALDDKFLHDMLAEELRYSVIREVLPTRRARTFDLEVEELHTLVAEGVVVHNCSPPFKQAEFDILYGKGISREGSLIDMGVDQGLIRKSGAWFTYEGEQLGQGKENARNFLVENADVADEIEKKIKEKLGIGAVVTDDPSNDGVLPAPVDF

Genome polyprotein = Genome polyprotein (dengue virus type 2, UniProt P29990); assay: Dengue-2 NS5 methyltransferase inhibitors, primary screen, biochemical, confirmation dose response (AID 588689); type: functional
Sequence of Genome polyprotein (P29990 2492-3391 limits assumed): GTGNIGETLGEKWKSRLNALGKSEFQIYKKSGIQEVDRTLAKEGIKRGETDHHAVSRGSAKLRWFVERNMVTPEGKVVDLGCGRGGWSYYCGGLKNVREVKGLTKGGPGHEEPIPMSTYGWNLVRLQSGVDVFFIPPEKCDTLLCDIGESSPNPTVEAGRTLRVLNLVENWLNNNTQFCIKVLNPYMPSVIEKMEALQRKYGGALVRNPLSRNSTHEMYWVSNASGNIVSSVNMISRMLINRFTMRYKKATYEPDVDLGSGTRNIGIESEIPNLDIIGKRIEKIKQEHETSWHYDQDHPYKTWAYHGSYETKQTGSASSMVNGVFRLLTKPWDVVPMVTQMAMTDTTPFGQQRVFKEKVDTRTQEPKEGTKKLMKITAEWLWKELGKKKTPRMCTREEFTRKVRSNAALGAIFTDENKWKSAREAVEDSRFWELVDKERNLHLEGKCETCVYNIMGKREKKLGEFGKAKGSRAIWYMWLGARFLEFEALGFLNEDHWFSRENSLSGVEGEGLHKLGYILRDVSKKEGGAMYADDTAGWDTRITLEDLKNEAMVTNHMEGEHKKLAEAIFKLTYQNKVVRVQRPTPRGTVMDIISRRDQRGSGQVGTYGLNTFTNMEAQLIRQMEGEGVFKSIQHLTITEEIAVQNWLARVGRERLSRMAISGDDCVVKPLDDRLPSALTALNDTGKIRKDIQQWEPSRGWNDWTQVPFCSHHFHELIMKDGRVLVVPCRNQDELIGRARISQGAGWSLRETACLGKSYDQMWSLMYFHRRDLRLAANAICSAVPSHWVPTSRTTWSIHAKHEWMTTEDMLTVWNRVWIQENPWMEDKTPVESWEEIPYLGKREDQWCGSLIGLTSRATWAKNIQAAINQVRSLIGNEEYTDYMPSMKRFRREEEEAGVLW

Coagulation factor XII = target: T3, Coagulation factor XII (Homo sapiens, UniProt P00748); type: functional;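 note: activated factor XIIa alpha cleaving a fluorogenic AMC peptide substrate; inhibitor potency from loss of enzyme activity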
T3 sequence (P00748 whole entry): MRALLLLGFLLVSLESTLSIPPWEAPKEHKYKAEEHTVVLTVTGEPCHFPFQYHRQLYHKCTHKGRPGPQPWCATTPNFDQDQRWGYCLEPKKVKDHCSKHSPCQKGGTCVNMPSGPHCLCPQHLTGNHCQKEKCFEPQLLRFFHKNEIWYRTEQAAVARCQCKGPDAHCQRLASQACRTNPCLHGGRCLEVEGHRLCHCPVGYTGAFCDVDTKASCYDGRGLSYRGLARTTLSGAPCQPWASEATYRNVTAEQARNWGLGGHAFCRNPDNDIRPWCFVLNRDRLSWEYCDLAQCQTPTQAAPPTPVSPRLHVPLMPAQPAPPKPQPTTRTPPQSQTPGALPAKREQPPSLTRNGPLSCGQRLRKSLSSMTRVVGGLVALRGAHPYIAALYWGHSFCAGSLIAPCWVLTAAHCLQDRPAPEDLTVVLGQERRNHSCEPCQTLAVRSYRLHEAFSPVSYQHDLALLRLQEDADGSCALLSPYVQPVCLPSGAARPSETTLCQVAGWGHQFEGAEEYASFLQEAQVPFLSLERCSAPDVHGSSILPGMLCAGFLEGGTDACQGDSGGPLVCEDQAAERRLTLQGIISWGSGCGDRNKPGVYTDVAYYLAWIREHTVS

[3] = target: Peroxisome proliferator-activated receptor gamma/Nuclear receptor coactivator 1 (Homo sapiens, UniProt P37231); assay: TR-FRET dose response biochemical High Throughput Screening assay for agonists of the steroid receptor coactivator 1 (SRC-1) recruitment by the peroxisome proliferator-activated receptor gamma (PPAR gamma): non-selective agonists. [Related pubchem assays (depositor defined):AID1300, AID1808, AID504735, AID631]; type: protein assay
[4] = target: Peroxisome proliferator-activated receptor gamma/Nuclear receptor coactivator 3 (Homo sapiens, UniProt P37231); assay: TR-FRET dose response biochemical High Throughput Screening assay for agonists of the steroid receptor coactivator 3 (SRC-3) recruitment by the peroxisome proliferator-activated receptor gamma (PPAR gamma): non-selective agonists. [Related pubchem assays: 1301 (Confirmation screen.), 1048 (Primary screen.)]; type: functional
Sequence of Peroxisome proliferator-activated receptor gamma/Nuclear receptor coactivator 3 (P37231 whole entry): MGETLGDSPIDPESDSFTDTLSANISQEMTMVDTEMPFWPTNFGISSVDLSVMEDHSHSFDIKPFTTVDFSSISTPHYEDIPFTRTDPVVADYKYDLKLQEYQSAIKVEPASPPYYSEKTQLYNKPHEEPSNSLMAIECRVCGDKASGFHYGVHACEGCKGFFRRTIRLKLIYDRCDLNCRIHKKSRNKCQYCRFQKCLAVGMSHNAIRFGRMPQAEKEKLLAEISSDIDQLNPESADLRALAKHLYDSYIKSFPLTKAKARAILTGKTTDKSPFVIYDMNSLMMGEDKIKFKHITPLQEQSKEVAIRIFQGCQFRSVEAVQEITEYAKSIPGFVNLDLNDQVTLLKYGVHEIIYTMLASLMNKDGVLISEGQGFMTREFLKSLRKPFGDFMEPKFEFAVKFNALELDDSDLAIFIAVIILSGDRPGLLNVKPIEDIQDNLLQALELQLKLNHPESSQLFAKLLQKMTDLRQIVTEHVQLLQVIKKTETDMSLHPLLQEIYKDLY
Sequence of Peroxisome proliferator-activated receptor gamma/Nuclear receptor coactivator 3 (Q9Y6Q9 whole entry, further chain): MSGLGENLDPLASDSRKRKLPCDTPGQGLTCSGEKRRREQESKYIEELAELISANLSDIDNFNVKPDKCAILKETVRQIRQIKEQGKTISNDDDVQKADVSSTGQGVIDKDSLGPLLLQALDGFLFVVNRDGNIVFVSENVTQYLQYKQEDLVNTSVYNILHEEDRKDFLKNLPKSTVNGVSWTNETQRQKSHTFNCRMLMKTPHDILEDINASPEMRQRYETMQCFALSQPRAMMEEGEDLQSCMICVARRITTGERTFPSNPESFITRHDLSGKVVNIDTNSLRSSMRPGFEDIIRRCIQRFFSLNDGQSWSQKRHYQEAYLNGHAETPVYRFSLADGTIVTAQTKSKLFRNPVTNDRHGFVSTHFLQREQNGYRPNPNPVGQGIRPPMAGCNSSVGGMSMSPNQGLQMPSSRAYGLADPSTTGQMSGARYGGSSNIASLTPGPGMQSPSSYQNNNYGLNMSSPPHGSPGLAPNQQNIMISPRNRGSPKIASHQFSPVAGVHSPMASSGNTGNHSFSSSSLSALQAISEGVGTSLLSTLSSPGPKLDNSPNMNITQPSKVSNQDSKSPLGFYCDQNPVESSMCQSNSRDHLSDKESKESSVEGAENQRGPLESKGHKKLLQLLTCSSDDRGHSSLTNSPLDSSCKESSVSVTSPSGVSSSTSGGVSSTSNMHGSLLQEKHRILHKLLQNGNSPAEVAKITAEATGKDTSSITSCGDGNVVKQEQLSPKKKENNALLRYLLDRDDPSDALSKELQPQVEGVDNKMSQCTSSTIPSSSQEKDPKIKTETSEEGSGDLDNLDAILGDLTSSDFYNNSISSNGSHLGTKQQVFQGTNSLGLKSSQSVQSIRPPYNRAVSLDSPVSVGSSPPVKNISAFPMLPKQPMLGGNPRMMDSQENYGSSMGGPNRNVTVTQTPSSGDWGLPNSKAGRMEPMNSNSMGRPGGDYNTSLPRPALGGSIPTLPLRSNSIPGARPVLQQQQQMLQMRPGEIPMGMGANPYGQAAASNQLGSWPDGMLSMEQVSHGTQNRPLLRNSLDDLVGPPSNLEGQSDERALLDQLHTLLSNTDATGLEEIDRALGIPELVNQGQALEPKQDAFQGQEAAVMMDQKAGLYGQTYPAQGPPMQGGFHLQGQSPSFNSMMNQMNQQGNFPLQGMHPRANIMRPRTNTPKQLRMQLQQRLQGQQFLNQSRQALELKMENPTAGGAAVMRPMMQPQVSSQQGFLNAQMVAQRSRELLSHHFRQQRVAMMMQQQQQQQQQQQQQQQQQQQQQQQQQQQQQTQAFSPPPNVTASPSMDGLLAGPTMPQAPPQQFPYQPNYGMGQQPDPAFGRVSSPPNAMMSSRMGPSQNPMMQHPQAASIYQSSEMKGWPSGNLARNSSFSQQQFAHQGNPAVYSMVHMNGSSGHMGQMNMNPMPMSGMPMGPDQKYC

[5] = target: Peroxisome proliferator-activated receptor gamma/Nuclear receptor coactivator 2 (Homo sapiens, UniProt P37231); assay: TR-FRET dose response biochemical High Throughput Screening assay for agonists of the steroid receptor coactivator 2 (SRC-2) recruitment by the peroxisome proliferator-activated receptor gamma (PPAR gamma): non-selective agonists. [Related pubchem assays: 1297, 1032 ]; type: functional
Sequence of Peroxisome proliferator-activated receptor gamma/Nuclear receptor coactivator 2 (P37231 whole entry): as the sequence (P37231 whole entry) above
Sequence of Peroxisome proliferator-activated receptor gamma/Nuclear receptor coactivator 2 (Q15596 whole entry, further chain): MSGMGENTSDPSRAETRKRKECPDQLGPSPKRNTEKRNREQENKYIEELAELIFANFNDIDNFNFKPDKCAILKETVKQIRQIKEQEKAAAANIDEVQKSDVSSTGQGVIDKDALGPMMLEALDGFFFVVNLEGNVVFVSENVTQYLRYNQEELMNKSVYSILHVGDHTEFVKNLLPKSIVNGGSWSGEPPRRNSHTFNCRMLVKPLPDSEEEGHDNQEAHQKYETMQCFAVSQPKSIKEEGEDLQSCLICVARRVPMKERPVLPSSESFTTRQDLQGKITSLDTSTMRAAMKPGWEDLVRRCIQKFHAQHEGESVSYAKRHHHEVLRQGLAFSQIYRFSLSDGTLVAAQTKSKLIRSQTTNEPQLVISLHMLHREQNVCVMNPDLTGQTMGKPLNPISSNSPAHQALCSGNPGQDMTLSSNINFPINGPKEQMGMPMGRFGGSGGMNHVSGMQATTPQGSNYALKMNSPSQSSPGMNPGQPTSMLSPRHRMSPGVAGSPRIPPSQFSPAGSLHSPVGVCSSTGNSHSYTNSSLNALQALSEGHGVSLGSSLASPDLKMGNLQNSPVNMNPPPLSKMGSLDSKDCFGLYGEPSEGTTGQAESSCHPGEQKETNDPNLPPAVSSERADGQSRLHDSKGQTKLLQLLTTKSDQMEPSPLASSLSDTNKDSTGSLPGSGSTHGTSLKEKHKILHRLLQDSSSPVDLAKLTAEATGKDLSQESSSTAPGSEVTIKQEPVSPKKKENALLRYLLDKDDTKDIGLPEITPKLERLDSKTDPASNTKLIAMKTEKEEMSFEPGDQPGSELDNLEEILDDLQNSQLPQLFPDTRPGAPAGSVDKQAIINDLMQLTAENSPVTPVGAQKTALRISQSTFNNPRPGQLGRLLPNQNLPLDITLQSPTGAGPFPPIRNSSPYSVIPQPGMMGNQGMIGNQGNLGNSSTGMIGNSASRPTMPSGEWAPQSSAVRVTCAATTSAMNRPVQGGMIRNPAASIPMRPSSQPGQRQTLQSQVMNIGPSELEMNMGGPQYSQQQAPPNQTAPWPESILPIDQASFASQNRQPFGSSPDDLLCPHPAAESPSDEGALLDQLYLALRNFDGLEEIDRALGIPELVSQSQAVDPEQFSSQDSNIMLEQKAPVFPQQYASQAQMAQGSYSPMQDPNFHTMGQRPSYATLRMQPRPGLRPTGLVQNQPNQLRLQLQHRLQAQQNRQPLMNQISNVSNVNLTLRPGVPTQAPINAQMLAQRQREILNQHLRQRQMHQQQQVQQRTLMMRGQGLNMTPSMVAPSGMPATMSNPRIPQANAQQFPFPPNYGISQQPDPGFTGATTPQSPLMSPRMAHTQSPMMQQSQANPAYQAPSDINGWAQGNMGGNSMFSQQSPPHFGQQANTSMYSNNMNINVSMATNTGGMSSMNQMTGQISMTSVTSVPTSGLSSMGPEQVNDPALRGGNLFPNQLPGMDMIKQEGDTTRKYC

[6] = target: T4, Corticotropin-releasing factor receptor 2/Corticotropin-releasing factor-binding protein (Homo sapiens, UniProt P24387+Q13324); assay: Dose Response confirmation of uHTS hits for small molecule antagonists of the CRF-binding protein and CRF-R2 receptor complex.; type: functional; details: read-out: IC50_Mean
T4 sequence (Q13324 whole entry): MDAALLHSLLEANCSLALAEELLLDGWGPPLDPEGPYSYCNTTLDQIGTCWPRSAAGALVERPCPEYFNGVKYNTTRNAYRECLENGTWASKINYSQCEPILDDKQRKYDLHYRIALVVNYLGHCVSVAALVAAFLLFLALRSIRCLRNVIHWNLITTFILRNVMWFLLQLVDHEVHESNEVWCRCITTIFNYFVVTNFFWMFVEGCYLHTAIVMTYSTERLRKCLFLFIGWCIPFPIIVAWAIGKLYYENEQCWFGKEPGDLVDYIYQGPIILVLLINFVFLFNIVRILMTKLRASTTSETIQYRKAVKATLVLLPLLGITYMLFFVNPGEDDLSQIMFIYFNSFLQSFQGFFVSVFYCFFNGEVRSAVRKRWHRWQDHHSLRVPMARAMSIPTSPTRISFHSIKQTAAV
T4 sequence (P24387 whole entry): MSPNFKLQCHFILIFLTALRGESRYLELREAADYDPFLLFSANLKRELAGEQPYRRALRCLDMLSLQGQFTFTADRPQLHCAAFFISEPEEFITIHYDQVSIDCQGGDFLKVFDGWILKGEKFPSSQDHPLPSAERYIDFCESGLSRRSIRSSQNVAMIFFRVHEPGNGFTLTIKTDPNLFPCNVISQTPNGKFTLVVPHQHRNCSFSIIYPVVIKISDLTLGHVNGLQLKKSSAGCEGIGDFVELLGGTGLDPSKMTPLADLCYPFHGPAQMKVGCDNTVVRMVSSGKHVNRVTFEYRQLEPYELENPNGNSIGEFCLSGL

[7] = target: T4, Corticotropin-releasing factor receptor 2/Corticotropin-releasing factor-binding protein; assay: activators of CRF receptor 2 with binding protein – uHTS hits, confirmation (AID 602473); type: functional; details: read-out: EC50_Mean
[8] = target: T5, Small ubiquitin-related modifier 1 (Homo sapiens, UniProt P63165); assay: inhibitors of SUMO1 peptide binding, dose response, biochemical, fluorescence polarization, uHTS hits (AID 624382); type: functional; details: read-out: IC50_Mean
T5 sequence (P63165 whole entry): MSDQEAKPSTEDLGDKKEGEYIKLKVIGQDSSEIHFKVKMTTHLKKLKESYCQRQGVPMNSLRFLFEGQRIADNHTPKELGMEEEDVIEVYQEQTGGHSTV

[9] = target: T5, Small ubiquitin-related modifier 1; assay: inhibitors of SUMO1 partner interactions, dose response, biochemical, FRET (AID 624383); type: functional; details: read-out: IC50_Mean
[10] = inhibitors of intracellular T. cruzi replication, confirmation, NIH3T3 host cells, beta-gal luminescence (AID 2044); type: functional, cell-based;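 note: intracellular parasites grown in NIH/3T3 mouse fibroblasts as host cells; luminescent beta-galactosidase reporter signal from transgenic T. cruzi replicating inside host cells; inhibitors lower the luminescence signal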
[11] = cytotoxicity toward NIH3T3 fibroblasts, dose response, counter-screen, cell-based, ATP luminescence, mouse fibroblasts (AID 2010); type: functional;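 note: cells exposed to compound for about 90 hours before reading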
Protein Tat = target: T6, Protein Tat (Human immunodeficiency virus type 1 group M subtype B (isolate HXB2)(HIV-1), UniProt P04608); type: functional;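 note: tat binding to TAR RNA read out by fluorescence polarization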
T6 sequence (P04608 whole entry): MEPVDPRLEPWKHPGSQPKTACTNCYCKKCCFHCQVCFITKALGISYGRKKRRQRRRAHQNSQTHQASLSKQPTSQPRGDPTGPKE

[12] = inhibitors of Vif binding to APOBEC3G peptide, primary screen, biochemical, TR-FRET, GST-Vif 1-94, biotin-A3G peptide, dose response retest (AID 1117319); type: functional;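 note: TR-FRET signal of purified GST-Vif binding a biotinylated A3G peptide; inhibitors lower the FRET signal by blocking Vif and A3G binding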
[13] = target: FAD-linked sulfhydryl oxidase ALR (Homo sapiens, UniProt P55789); assay: inhibitors of human ALR sulfhydryl oxidase, dose response, biochemical, H2O2 detection, luminescence, cherry-pick (AID 493248)
SUMO-activating enzyme = SUMO-activating enzyme (Homo sapiens, UniProt Q9UBT2); assay: SUMOylation inhibitor hit validation, confirmation, SUMOylation inhibitor project, biochemical, AlphaScreen (AID 2018); type: functional
Cytochrome P450 2C19 = Cytochrome P450 2C19 (Homo sapiens, UniProt P33261); assay: Cytochrome panel assay with activity outcomes. Panel member name: p450-cyp2c19 Compounds with AC50 equal or less than 10 uM are considered active; type: functional; details: read-out: AC50
[14] = target: Glucose-6-phosphate 1-dehydrogenase (Homo sapiens, UniProt P11413); assay: human G6PD enzyme inhibitors, dose response, selectivity assay for P. falciparum G6PD inhibitor project, biochemical, fluorescence (AID 504792); type: functional

COc1ccc2c(c1)C=C(C(=O)NCc1ccc(Cl)cc1)CO2
AC50 [1]: 69.4 µM (active)

COC(=O)c1cccc(N2C(=O)C(Cl)=C(N3CCOCC3)C2=O)c1
AC50 [2]: 4.2 µM (active)
EC50 (Protein RecA): 1.93 µM (active)
IC50 (Genome polyprotein): 23.6 µM (active)

O=C(O)Cn1cc(C=C2C(=O)NC(=O)NC2=O)c2ccccc21
IC50 (Genome polyprotein): > 100 µM (active)

COc1cc(OC)cc(C(=O)N2CCN(Cc3ccccc3C(F)(F)F)CC2)c1
IC50 (Coagulation factor XII): > 50 µM (inactive)

O=C(CSc1ncnc2c1oc1ccccc12)Nc1cccc(Cl)c1
EC50 [3]: 37.1 µM (inactive)
EC50 [4]: > 79.4 µM (not active)
EC50 [5]: 23.7 µM (not active)

Cc1cccc(OCC(=O)Nc2nnc(-c3ccco3)s2)c1
EC50 [3]: > 26.5 µM (inactive)
EC50 [4]: > 79.4 µM (not active)
EC50 [5]: > 26.5 µM (not active)

CCn1c(=O)cc(SCC(=O)NCc2ccco2)c2ccccc21
EC50 [3]: > 79.4 µM (inactive)
EC50 [4]: > 79.4 µM (not active)
EC50 [5]: > 79.4 µM (not active)

COc1ccc(-c2nnc(Nc3ccc(S(=O)(=O)Nc4nccs4)cc3)c3ccccc23)cc1
EC50 [3]: 14.9 µM (inactive)
EC50 [4]: > 79.4 µM (not active)
EC50 [5]: 9.18 µM (active)
IC50 [6]: > 47.1 µM (inactive)
EC50 [7]: > 53 µM (inactive)
IC50 [8]: > 66.6 µM (inactive)
IC50 [9]: 18.2 µM (active)

N=C(NOC(=O)c1ccc2ccccc2c1)c1ccccc1Cl
EC50 [10]: 1.8 µM (active)
EC50 [11]: 8.76 µM (active)
AC50 [1]: 2.34 µM (active)

c1cncc(-c2csc(NCc3ccco3)n2)c1
IC50 (Coagulation factor XII): > 50 µM (inactive)
IC50 (Protein Tat): > 100 µM (active)
IC50 [12]: > 100 µM (active)

CC1=NN(Cc2ccccc2)C(=O)C1C(c1ccccc1)C(C#N)C#N (stereo unspecified)
AC50 [13]: 5.37 µM (active)
AC50 [2]: 3.54 µM (active)
EC50 (Protein RecA): 2.22 µM (active)
IC50 (Genome polyprotein): 55.4 µM (active)

O=C(Nc1ccccc1O)c1cc(S(=O)(=O)N2CCOCC2)c(Cl)cc1Cl
IC50 (SUMO-activating enzyme): > 100 µM (inactive)

Cc1cccc(NC(=O)c2cc(N3C(=O)CCC3=O)ccc2Cl)n1
IC50 (Coagulation factor XII): > 50 µM (inactive)
AC50 (Cytochrome P450 2C19): 28.2 µM (inconclusive)

COc1c2ccoc2c(OCC=C(C)C)c2oc(=O)ccc12 [PHELLOPTERIN]
IC50 [14]: > 80 µM (inactive)
